Data taken from US8883850B2, “Naphthalene carboxamide M1 receptor positive allosteric modulators” (Merck Sharp & Dohme Corp., priority 2010, dated 2014).
pEC50: −log10 of the molar value. Read-outs that look alike come from different tables or passages of the source.

Target: T1, acetylcholine muscarinic M1 receptor (Homo sapiens, UniProt P11229)
T1 construct: expressed in transfected cells; host or cells: CHOnfat (CHO cells; also called CHOK1/hM1)
T1 sequence (P11229 1-460): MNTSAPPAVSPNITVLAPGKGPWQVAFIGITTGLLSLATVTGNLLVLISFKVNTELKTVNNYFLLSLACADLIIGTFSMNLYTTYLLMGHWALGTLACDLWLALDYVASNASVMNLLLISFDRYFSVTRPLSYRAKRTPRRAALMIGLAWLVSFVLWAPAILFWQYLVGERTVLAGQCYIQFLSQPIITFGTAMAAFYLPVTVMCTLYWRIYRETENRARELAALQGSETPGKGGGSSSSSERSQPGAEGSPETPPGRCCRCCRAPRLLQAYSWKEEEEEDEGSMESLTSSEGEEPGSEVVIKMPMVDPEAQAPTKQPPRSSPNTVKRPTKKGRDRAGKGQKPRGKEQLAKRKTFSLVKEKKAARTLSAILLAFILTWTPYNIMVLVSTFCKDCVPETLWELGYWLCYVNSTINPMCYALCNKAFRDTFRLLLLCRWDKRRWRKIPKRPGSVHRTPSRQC
Experiment: M1 FLIPR assay: intracellular calcium, potentiation of acetylcholine EC20
Format: cell-based
Method: The assay studies the effect of one or several concentrations of test compounds on basal or acetylcholine-stimulated Ca^2+ levels using FLIPR.
For each compounds of the invention that was evaluated, the compound is prepared and subjected to a pre-incubation period of four minutes. Thereafter, a single EC20 concentration of acetylcholine is added to each well (3 nM final). The intracellular Ca^2+ level of each sample is measured and compared to an acetylcholine control to determine any modulatory activity.
Cells: CHOnfat/hM1, hM2, hM3 or hM4 cells are plated 24 hours before the assay at a density of 18,000 cells/well (100 μL) in a 384 well plate. CHOnfat/hM1 and CHOnfat/hM3 Growth Medium: 90% DMEM (Hi Glucose); 10% HI FBS; 2 mM L-glutamine; 0.1 mM NEAA; Pen-Strep; and 1 mg/ml Geneticin, are added. For M2Gqi5CHOnfat and M4Gqi5CHOnfat cells, an additional 600 μg/ml hygromycin is added.
Dye Loading Buffer: Assay Buffer plus 1% Fetal Bovine Serum and Fluo-4AM/Pluronic Acid Mixture. […] 20% Pluronic acid solution stock, with a concentration of 0.04% in Buffer, 0.02% in Assay. 65 μL of 2 mM Fluo-4AM are mixed with 130 μL of 20% pluronic acid. The resulting solution and 650 μL FBS is added to the assay buffer for a total volume of 65 mL.
Positive Controls: 4-Br-A23187: 10 mM in DMSO, final concentration 10 μM. Acetylcholine: […], working stock at both 20 μM and 30 μM in assay buffer, final concentration of 10 μM. This is used to check the maximum stimulation of the CHOK1/hM1 cells. 20 μM (2×) acetylcholine is added in the preincubation part of the assay, and the 30 μM (3×) stock is added in the second part. (EC20)Acetylcholine: 10 mM in water, working stock of 9 nM (3×), and final concentration in assay is 3 nM. This is used after the preincubation with test compounds. Addition of the EC20 Acetylcholine to each well with a test compound will ascertain any modulator activity. 24 wells contain 3 nM Acetylcholine alone as a control.
Four 96-well plates are combined into a 384-well plate using Mosquito Nanoliter Pipetting System by transferring 1 μl of serial diluted compounds to each well, and 1 mM acetylcholine (100× stock concentration) were added as a control. Using Temo, 49 μl assay buffer is added to each well of the 384-well plate right before assay.
In a 96-well Whatman 2 ml Uniplate, 9 nM Acetylcholine (3×) is pipetted into wells corresponding to the screening compounds, and into control wells. The 30 μM acetylcholine control (3×) is added into control wells, and the 3× agonist plate is transferred into a 384 well plate.
Cells are washed three times with 100 μL of buffer, leaving 30 μL of buffer in each well. Using Multimek, 30 μL of Dye Loading Buffer is added into each well and incubated at 37° C., 5% CO2 for up to one hour.
After 60 minutes, the cells are washed three times with 100 μL of buffer, leaving 30 μL of buffer in each well. The cell plate, screening plate, and agonist addition plates are placed on the platform in the FLIPR and the door closed. A signal test to check background fluorescence and basal fluorescence signal is performed. Laser intensity is adjusted if necessary.
Four minutes of pre-incubation with the test compounds is provided to determine any agonist activity on the M1 receptor by comparison to the […] acetylcholine control. After pre-incubation, the EC20 value of acetylcholine (3 nM final) is added to determine any modulator activity.

[1] = M1 activity in a FLIPR assay, Table 3, Examples 1-12, read-out: M1 Potential
[2] = inflection point value from FLIPR assay, CHOnfat/hM1 cells, 4 min pre-incubation, then acetylcholine EC20 (3 nM final), Table 1, Formula (III), read-out: M1 IP Value

pEC50 [1] | pEC50 [2] | Compound | other results
 | 7.66 | COc1c(C(=O)N[C@H]2CCOC[C@@H]2O)cc(Cc2ccc(-c3ccc(C)nc3)nc2)c2ccccc12 [Compound 1-15] | 
 | 8.17 | COc1c(C(=O)N[C@H]2CCOC[C@@H]2O)cc(Cc2ccc(-c3ccnc(C)c3)nc2)c2ccccc12 [Compound 1-14] | 
 | 7.06 | COc1c(C(=O)N[C@H]2CCOC[C@@H]2O)cc(Cc2ccc(C)nc2)c2ccccc12 [Compound 1-13] | 
 | 5.81 | COc1c(C(=O)O)cc(Cc2ccc(NC(C)=O)cc2)c2ccccc12 [Compound 1-2] | 
 | 6.77 | COc1c(C(=O)N[C@H]2CCCC[C@@H]2O)cc(Cc2ccc(SC)nc2)c2ccccc12 [Compound 1-9] | 
 | 6.55 | COc1ccc(Cc2cc(C(=O)N[C@H]3CCCC[C@@H]3O)c(OC)c3ccccc23)cn1 [Compound 1-7] | 
 | 6.85 | COc1cc(Cc2cc(C(=O)N[C@H]3CCCC[C@@H]3O)c(OC)c3ccccc23)ccn1 [Compound 1-12] | 
 | 7.62 | COc1c(C(=O)N[C@H]2CCCC[C@@H]2O)cc(Cc2ccc(-c3cccnc3)nc2)c2ccccc12 [Compound 1-3] | 
 | 6.65 | COc1c(C(=O)N[C@H]2CCCC[C@@H]2O)cc(Cc2ccnc(C)c2)c2ccccc12 [Compound 1-11] | 
 | 6.06 | COc1c(C(=O)O)cc(Cc2ccc(-c3ccccc3)cc2)c2ccccc12 [Compound 1-1] | 

Second part, the compound before the results:

Compound | pEC50 [1] | pEC50 [2] | other results
COc1c(C(=O)N[C@H]2CCCC[C@@H]2O)cc(Cc2ccc(Cl)nc2)c2ccccc12 [Example 3, 4-[(6-Chloropyridin-3-yl)methyl]-N-[(1S,2S)-2-hydroxycyclohexyl]-1-methoxy-2-naphthamide] | 6.59 |  | 
COc1c(C(=O)N[C@H]2CCCC[C@@H]2O)cc(Cc2ccc(C)nc2)c2ccccc12 [Example 4] | 6.92 |  | 
COc1c(C(=O)N[C@H]2CCOC[C@@H]2O)cc(Cc2ccc(Cl)nc2)c2ccccc12 [Example 10, 4-[(6-Chloropyridin-3-yl)methyl]-N-[(3R,4S)-3-hydroxytetrahydro-2H-pyran-4-yl]-1-methoxy-2-naphthamide] | 7.25 |  | 
COc1c(C(=O)N[C@H]2CCCC[C@@H]2O)cc(CN2CCN(c3cnn(C)c3)CC2)c2ccccc12 [Example 8, N-[(1S,2S)-2-Hydroxycyclohexyl]-1-methoxy-4-{[4-(1-methyl-1H-pyrazol-4-yl)piperazin-1-yl]methyl}-2-naphthamide] | 5.41 |  | 
COc1c(C(=O)N[C@H]2CCCC[C@@H]2O)cc(Cc2ccc(-c3cnn(C)c3)nc2)c2ccccc12 [Example 5, N-[(1S,2S)-2-Hydroxycyclohexyl]-1-methoxy-4-{[6-(1-methyl-1H-pyrazol-4-yl)pyridine-3-yl]methyl}-2-naphthamide] | 7.77 |  | 
COc1ccc(Cc2cc(C(=O)O)c(OC)c3ccccc23)cc1 [Example 1, 1-Methoxy-4-(4-methoxybenzyl)-2-naphthoic acid] | 5.48 |  | 
COc1c(C(=O)N[C@H]2CCCC[C@@H]2O)cc(Cc2ccc(-n3cccn3)nc2)c2ccccc12 [Example 7, N-[(1S,2S)-2-Hydroxycyclohexyl]-1-methoxy-4-{[6-(1H-pyrazol-1-yl)pyridine-3-yl]methyl}-2-naphthamide] | 7.09 |  | 
C=CCOc1c(C(=O)N[C@H]2CCCC[C@@H]2O)cc(Cc2ccc(Cl)nc2)c2ccccc12 [Compound 2-2] |  |  | pEC50 (inflection point value from FLIPR assay, CHOnfat/hM1 cells, 4 min pre-incubation, then acetylcholine EC20 (3 nM final), Table 2, Formula (IV), read-out: M1 IP Value): 5.94
COc1c(C(=O)N[C@H]2CCCC[C@@H]2O)cc(Cc2ccnc(SC)c2)c2ccccc12 [Example 11, N-[(1S,2S)-2-Hydroxycyclohexyl]-1-methoxy-4-{[2-(methylthio)pyridin-4-yl]methyl}-2-naphthamide] | 6.55 |  | 
COc1c(C(=O)O)cc(Cc2ccc(-n3cccn3)cc2)c2ccccc12 [Example 2, 1-Methoxy-4-[4-(1H-pyrazol-1-yl)benzyl]-2-naphthoic acid] | 6.24 |  | 
O=C(N[C@H]1CCCC[C@@H]1O)c1cc(Cc2ccc(-n3cccn3)nc2)c2ccccc2c1O [Example 6, 1-Hydroxy-N-[(1S,2S)-2-hydroxycyclohexyl]-4-{[6-(1H-pyrazol-1-yl)pyridine-3-yl]methyl}-2-naphthamide] | 5.33 |  | 
CCc1ccc(Cc2cc(C(=O)N[C@H]3CCCC[C@@H]3O)c(OC)c3ccccc23)cn1 [Example 9, N-[(1S,2S)-2-Hydroxycyclohexyl]-1-methoxy-4-[(6-ethylpyridin-3-yl)methyl]-2-naphthamide] | 6.72 |  | 
CCOc1c(C(=O)N[C@H]2CCCC[C@@H]2O)cc(Cc2ccc(Cl)nc2)c2ccccc12 [Example 12] | 6.01 |  | 
